# Experimental data published in patent US20230286943A1, “IL-17A MODULATORS” (SANOFI, priority 2020, published 2023).
# Marks after values point to notes of the source that are not given here.
# Target: human recombinant IL-17A (Homo sapiens (Human), UniProt Q16552)
# Test: IL-17A AlphaLISA Assay (competition: block binding of IL-17A to its receptor IL-17RA)
# Conditions: compounds pre-incubated with IL-17A for 30 min (indicated by *)
# Method: The ability of the compounds to block binding of IL-17A to its receptor, IL-17RA, was analysed in a competition assay using AlphaLISA technology (Perkin Elmer). The assay is a bead based AlphaLISA where the IL-17RA is captured on the acceptor bead via an Fc tag and IL-17A is captured on the streptavidin donor bead via a biotinylated anti-IL-17A antibody.
# Assay buffer was prepared by adding 0.05% Tween-20 (v/v) and 0.1% BSA to Phosphate Buffered Saline (PBS). The assay was carried out in 384-well white low volume plates (Corning 4512). 10 μL of a 7.5 nM stock of human recombinant IL-17A (R&D Systems 7955-IL/CF) diluted in assay buffer was dispensed into the assay plate and compounds or DMSO vehicle control were added in a volume of 75 nL using a D300 dispenser (Hewlett Packard). The compounds were pre-incubated with the IL-17A for 24 h at room temperature (or for 30 min, where indicated by * in Table A below) prior to addition of 5 μL of a 5 nM stock of human recombinant IL-17RA/Fc chimera (R&D Systems 177-IR-100) diluted in assay buffer. The IL-17A was incubated with the receptor for a further 90 minutes at room temperature before addition of 5 μL of a mixture of anti-human Fc IgG acceptor beads (75 μg/mL, Perkin Elmer AL103C) and anti-IL-17A biotin conjugated antibody (5 nM, Enzo Life Sciences, ENZ-ABS278-0100) in assay buffer. After a further 30 min incubation at room temperature, 5 μL of streptavidin donor beads (75 μg/mL, Perkin Elmer 6760002S) were added and the plate was incubated for 3 h in the dark.
# The luminescence signal was measured using an Enspire plate reader (Perkin Elmer) with excitation at 680 nm and emission at 615 nm. Data were analysed using GraphPad Prism and fitted to a 4-parameter logistic equation. The IC50 values were calculated using the DMSO vehicle as the negative control and a high concentration (6 μM) of a reference IL-17A inhibitor as the positive control.
# Activity of the Example compounds is reported as a pIC50 value in Table A.
# Chain of human recombinant IL-17A (Q16552 24-155): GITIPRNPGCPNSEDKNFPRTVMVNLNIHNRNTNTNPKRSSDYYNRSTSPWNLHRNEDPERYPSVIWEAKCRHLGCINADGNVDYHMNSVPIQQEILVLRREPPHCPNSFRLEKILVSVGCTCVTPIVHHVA
row,SMILES,AlphaLISA pIC50
1,"Cc1c(-c2ccc(NC(=O)[C@@H](NC(=O)c3ccnn3C)C3CCC(F)(F)CC3)cc2)ccc(=O)n1C [Example 20, (S)-N-(1-(4,4-Difluorocyclohexyl)-2-((4-(1,2-dimethyl-6-oxo-1,6-dihydropyridin-3-yl)phenyl)amino)-2-oxoethyl)-1-methyl-1H-pyrazole-5-carboxamide]",6.0*
2,"Cc1c(-c2ccc(NC(=O)[C@@H](NC(=O)c3ccnn3C)C3CCC(C)(C)CC3)cc2)ccc(=O)n1C [Example 21, (S)-N-(2-((4-(1,2-Dimethyl-6-oxo-1,6-dihydropyridin-3-yl)phenyl)amino)-1-(4,4-dimethylcyclohexyl)-2-oxoethyl)-1-methyl-1H-pyrazole-5-carboxamide]",6.0*
3,"Cc1nnn(C)c1-c1ccc(NC(=O)[C@@H](NC(=O)c2ccnn2C)[C@H]2CC[C@H](C)CC2)nc1 [Example 44, N-((S)-2-((5-(1,4-Dimethyl-1H-1,2,3-triazol-5-yl)pyridin-2-yl)amino)-1-((1r,4S)-4-methylcyclohexyl)-2-oxoethyl)-1-methyl-1H-pyrazole-5-carboxamide]",6.8*
4,"CCn1nccc1C(=O)N[C@H](C(=O)Nc1ccc(-c2c(C)c[n+]([O-])cc2C)cn1)[C@H]1CC[C@H](C)CC1 [Example 58, 6-((S)-2-(1-Ethyl-1H-pyrazole-5-carboxamido)-2-((1 r,4S)-4-methylcyclohexyl)acetamido)-3′,5′-dimethyl-[3,4′-bipyridine]1′-oxide]",6.9*
5,"COc1c(-c2ccc(NC(=O)[C@@H](NC(=O)c3ccnn3C)[C@H]3CC[C@H](C)CC3)nc2)ccnc1C [Example 70, N-((S)-2-((3′-methoxy-2′-methyl-[3,4′-bipyridin]-6-yl)amino)-1-((1r,4S)-4-methylcyclohexyl)-2-oxoethyl)-1-methyl-1H-pyrazole-5-carboxamide]",6.1*

# Next, values leading:
row,AlphaLISA pIC50,SMILES
1,6.3*,"Cc1cnn(C)c1-c1ncc(NC(=O)[C@@H](NC(=O)c2ccnn2C)[C@H]2CC[C@H](C)CC2)cc1F [Example 98, N-((S)-2-((6-(1,4-dimethyl-1H-pyrazol-5-yl)-5-fluoropyridin-3-yl)amino)-1-((1 r,4S)-4-methylcyclohexyl)-2-oxoethyl)-1-methyl-1H-pyrazole-5-carboxamide]"
2,6.1*,"Cc1cnn(C)c1-c1ccc(NC(=O)[C@@H](NC(=O)c2ccnn2C)C2CCCC2)nc1 [Example 102, (S)-N-(1-cyclopentyl-2-((5-(1,4-dimethyl-1H-pyrazol-5-yl)pyridin-2-yl)amino)-2-oxoethyl)-1-methyl-1H-pyrazole-5-carboxamide]"
3,6.8*,"CCn1nccc1C(=O)N[C@H](C(=O)Nc1cnc(-c2c(C)cnn2C)c(F)c1)[C@H]1CC[C@H](C)CC1 [Example 108, N-((S)-2-((6-(1,4-dimethyl-1H-pyrazol-5-yl)-5-fluoropyridin-3-yl)amino)-1-((1 r,4S)-4-methylcyclohexyl)-2-oxoethyl)-1-ethyl-1H-pyrazole-5-carboxamide]"
4,6.0*,"Cc1nsc(C)c1-c1ccc(NC(=O)[C@@H](NC(=O)c2cnnn2C)[C@H]2CC[C@H](C)CC2)nc1 [Example 116, N-((S)-2-((5-(3,5-dimethylisothiazol-4-yl)pyridin-2-yl)amino)-1-((1r,4S)-4-methylcyclohexyl)-2-oxoethyl)-1-methyl-1H-1,2,3-triazole-5-carboxamide]"

# Same assay, conditions: compounds pre-incubated with IL-17A for 24 h at room temperature
row,SMILES,AlphaLISA pIC50
1,"Cc1c(-c2ccc(NC(=O)[C@@H](NC(=O)c3ccnn3C)[C@H]3CC[C@H](C)CC3)nc2)ccc(=O)n1C [Example 8, N-((S)-2-((1′,2′-Dimethyl-6′-oxo-1′,6′-dihydro-[3,3′-bipyridin]-6-yl)amino)-1-((1 r,4S)-4-methylcyclohexyl)-2-oxoethyl)-1-methyl-1H-pyrazole-5-carboxamide]",6.0
